Results as given in patent US8334239B2, “High affinity VEGF-receptor antagonists” (The Board of Regents of the University of Texas System, priority 2007, dated 2012).
“Also recorded” adds a separate entry of the source. Positions of bridges follow the written chain, without caps; N, C: chain ends. Non-standard residues stand in square brackets, D forms with d. Residues, ends and D or L forms follow the SMILES beside them. Chains are numbered I, II in the order given. *: point of attachment. Fluorescein(5-Mal) = O=C1OC2(c3ccc(O)cc3Oc3cc(O)ccc32)c2ccc(N3C(=O)CC(*)C3=O)cc21; Gly(N-piperonyl) = O=C(O)CNCc1ccc2c(c1)OCO2; Nrpe = C[C@@H](NCC(=O)O)c1ccccc1; Nleu = CC(C)CNCC(=O)O; Nlys = NCCCCNCC(=O)O; Ahx = NCCCCCC(=O)O; βAla = NCCC(=O)O

Key:
HUVEC [1] = experiment: HUVEC proliferation assay; assay type: cell-based, human; settings: 1.3 nM VEGF
Experimental: HUVEC proliferation assay. HUVEC cells (ScienceCell) were harvested using enzyme free cell dissociation buffer and resuspended in ECM (5% FBS). Cells were plated (2000 cells/well) on white, clear bottom 96-well plates coated with gelatin. Cells were grown for 24 h at 37° C. […] The treatment was repeated with fresh media (0.2% FBS) and reagents after two days. After four days, viable cells were determined using CellTiter-Glo® Luminescent Cell Viability Assay kit (Promega), and the luminescent signal was read by the plate reader.

[2] = test system: A673 (human Ewing's sarcoma) tumors; settings: mouse, in vivo
Experimental: Cell Culture. The human Ewing's sarcoma cell line A673 (CRL-1598, ATCC, Manassas, Va.) was grown as a monolayer in Dulbeco's minimal essential medium (Invitrogen, Carlsbad, Calif.) supplemented with 10% heat-inactivated fetal calf serum (Atlanta Biologicals, Lawrenceville, Ga.). Cells were maintained at 37° C. in a mixture of 5% CO2 and 95% air. Cell viability was monitored by Trypan Blue (Invitrogen, Carlsbad, Calif.) exclusion after trypsinization. Cell fingerprinting was performed by Dr. Luc Girard at the McDermott Center at UT Southwestern to verify identity of cells and the cells were also tested and found to be negative for Mycoplasma prior to use.
Tumor study. Tumors were established in the right flank of 6-8 week old female athymic nu/nu mice (NCl, Frederick, Md.) by subcutaneous injection of 2.5 million cells in a volume of 50 μl PBS. On the same day, an Alzet subcutaneous pump (DURECT Corporation, Cupertino Calif.) was implanted per manufacturer's recommendations. […] Pumps were weighed empty and again when filled to ensure correct loading. Based on the mean pumping rate (0.2 μl/hr), these pumps were predicted to elute for 21 days. Implantation of the pump was performed by making a small incision on the back of the anesthetized animal and subsequently using a hemostat to create a subcutaneous pocket in which to place the pump. The incision was closed with a 5-0 prolene (Ethicon, Somerville, N.J.). Animal weights and tumor volumes (calipers) were recorded twice weekly. Volumes were calculated using the formula D*d^2*0.52 where D is the long diameter and d is the perpendicular short diameter.
Immunohistochemistry. Formalin-fixed tissues were embedded in paraffin, sectioned and stained with hematoxylin and eosin by the Molecular Histopathology Laboratory at UT Southwestern. H&E photographs were taken at a total magnification of 40× on a Nikon DXM 1200 digital camera (Melville, N.Y.). For immunohistochemical staining, slides were deparaffinized by heating at 60° C. for one hour followed by immersion in xylenes. Tissue was rehydrated by sequential immersion in ethanols. Endogenous peroxidase activity was blocked with 3% H2O2 in methanol. Antigen retrieval was performed using pH 6.0 citrate buffer (LabVision, Freemont, Calif.) for 15 minutes in a pressure cooker. […] The primary antibody was detected by incubating with a biotinylated donkey anti-rat IgG (Jackson ImmunoResearch, Westgrove, Pa.) followed by the ABC detection kit (Vector laboratories, Burlingame, Calif.). […] Microvessel density (MVD) was determined by manually counting the number of blood vessels in visible in the microscopic field of view (total magnification, 100×). […]

VEGFR2 [3] = target: T1, VEGFR2 (Homo sapiens, UniProt P35968); experiment: VEGF-induced VEGFR2 autophosphorylation in PAE/KDR cells, Western blot; assay type: cell-based; parameters: allow the library to be screened against the full-length receptor in as natural an environment as possible; host or cells: PAE/KDR (porcine aortic endothelial cells expressing human KDR)
Experimental: Western blots. Experiments were conducted using PAE/KDR cells that were grown on 6-well plates. […] The blots were probed with Phospho-VEGF receptor 2 (Tyr1175) (19A10) rabbit monoclonal or Total VEGFR2 primary antibodies (Cell signaling) and HRP-conjugated secondary antibody (BioRad).
Functional characterization of the VEGFR2-binding peptoids. GU40C and GU40E were then tested for their ability to modulate VEGFR function. Of course, since the screen simply demanded binding of the peptoid to the receptor, it was not a given that this would be the case. […] Western blot analysis using phospho-VEGFR2-specific antibodies was then employed to monitor receptor activation.
To do so, the inventors examined the effect of the peptoid on VEGF-induced VEGFR2 autophosphorylation by Western blotting, as described earlier.

HUVEC [4] = experiment: HUVEC tube formation assay; assay type: cell-based, human; settings: 1 μM and 10 μM, 1.3 nM VEGF
Experimental: HUVEC tube formation assay. Endothelial cell medium gel (ECM gel) was thawed overnight at 4° C. refrigerator and added 50 μl to each well of pre-chilled white, clear bottom 96-well plate. Incubated for 30 min to facilitate the gel formation. […] 150 μl of these treated cell suspension (20,000 cells) was added per well and incubated at 37° C. and visualized tube formation under the light microscope after 16 hours (10× magnification).

VEGFR2 [5] = target: T1, VEGFR2; experiment: GU40C4 cell surface binding assay (biotinylated peptoid, streptavidin quantum dots); assay type: cell-based; parameters: allow the library to be screened against the full-length receptor in as natural an environment as possible; host or cells: PAE/KDR (porcine aortic endothelial cells expressing human KDR); settings: for binding to cells with or without native VEGFR2: HeLa, HEK-293, HFF, MCF-7, only MCF-7 expresses VEGFR2
Experimental: Different types of cells (PAE/KDR, PAE, Hela, HEK-293, MCF-7, HFF) were grown on each well of chamber slides (Nalge Nunc International) (10,000 cells/chamber) overnight. Washed, and fixed cells with 3.7% formaldehyde and blocked with Startingblock blocking buffer. […] After the final washing, cells were mounted by ProLong® Gold antifade reagent with DAPI (Invitrogen) and visualized under DAPI filter of the fluorescence microscope.
Specificity of the GU40C4-VEGFR2 interaction on the cell surface. […] The DAPI-stained nuclei are shown in blue. […] In addition, the red halo was not observed when the VEGFR2-expressing PAE/KDR cells were incubated with only the streptavidin-coated red quantum dots without addition of the biotinylated peptoid (FIG. 5C).
An important question is whether the peptoid is able to recognize VEGFR2 on the surface of cells when the receptor is expressed at native levels. To address this question, the inventors incubated biotinylated CU40C4 and streptavidin-coated red quantum dots with four different cell lines: HeLa, HEK-293, human foreskin fibroblast (HFF) and MCF-7. Of these, only MCF-7 expresses significant quantities of the VEGFR2. […] The inventors conclude from these experiments that the dimeric peptoid is highly specific for the VEGFR2 and can recognize the receptor even when it is expressed at native levels on the surface of a breast cancer cell.

T1 sequence (P35968 20-1356): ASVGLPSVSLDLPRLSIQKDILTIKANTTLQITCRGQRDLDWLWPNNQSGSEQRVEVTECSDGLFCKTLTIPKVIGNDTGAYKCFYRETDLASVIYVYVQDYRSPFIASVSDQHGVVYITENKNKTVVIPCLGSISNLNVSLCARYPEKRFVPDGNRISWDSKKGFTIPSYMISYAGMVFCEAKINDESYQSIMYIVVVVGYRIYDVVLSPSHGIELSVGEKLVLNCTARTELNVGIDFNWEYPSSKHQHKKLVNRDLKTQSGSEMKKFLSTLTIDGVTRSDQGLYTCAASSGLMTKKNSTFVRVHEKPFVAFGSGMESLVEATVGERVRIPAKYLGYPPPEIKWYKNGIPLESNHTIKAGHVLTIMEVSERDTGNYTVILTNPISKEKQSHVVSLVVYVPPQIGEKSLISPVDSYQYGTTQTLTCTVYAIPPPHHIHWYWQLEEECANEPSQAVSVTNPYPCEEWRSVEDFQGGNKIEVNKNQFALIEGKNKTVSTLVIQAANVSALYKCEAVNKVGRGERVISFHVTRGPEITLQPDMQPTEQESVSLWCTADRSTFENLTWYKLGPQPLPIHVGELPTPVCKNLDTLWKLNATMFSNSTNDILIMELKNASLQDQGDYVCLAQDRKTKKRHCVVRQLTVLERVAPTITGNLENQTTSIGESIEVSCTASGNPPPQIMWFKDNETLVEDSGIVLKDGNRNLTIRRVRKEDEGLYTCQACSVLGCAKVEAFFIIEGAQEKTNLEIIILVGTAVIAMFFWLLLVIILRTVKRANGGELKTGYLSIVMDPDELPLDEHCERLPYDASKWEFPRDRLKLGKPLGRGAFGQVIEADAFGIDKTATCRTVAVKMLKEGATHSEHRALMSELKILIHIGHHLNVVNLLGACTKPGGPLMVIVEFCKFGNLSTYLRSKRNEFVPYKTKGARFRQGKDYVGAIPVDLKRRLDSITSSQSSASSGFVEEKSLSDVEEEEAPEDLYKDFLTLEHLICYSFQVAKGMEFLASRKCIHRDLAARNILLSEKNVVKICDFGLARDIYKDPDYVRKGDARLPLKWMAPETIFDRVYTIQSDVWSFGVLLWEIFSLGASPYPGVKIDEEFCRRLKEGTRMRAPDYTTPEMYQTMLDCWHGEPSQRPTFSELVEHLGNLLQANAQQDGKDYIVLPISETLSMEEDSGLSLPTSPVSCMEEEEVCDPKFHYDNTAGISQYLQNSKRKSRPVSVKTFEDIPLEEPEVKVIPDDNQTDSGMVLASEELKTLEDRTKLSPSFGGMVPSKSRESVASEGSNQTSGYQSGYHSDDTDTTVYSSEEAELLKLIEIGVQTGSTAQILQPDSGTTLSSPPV

SMILES: CC(C)CN(CC(=O)N(CCCCN)CC(=O)N(CC(=O)N(CC(=O)N(CCCCN)CC(=O)N(CC(=O)N(CCCCN)CC(=O)N(CCCCN)CC(=O)NCCCCCC(=O)NCCC(=O)N[C@@H](CCCCNC(=O)CN(CCCCN)C(=O)CN(CCCCN)C(=O)CN(CC(C)C)C(=O)CN(CCCCN)C(=O)CN(Cc1ccc2c(c1)OCO2)C(=O)CN(C(=O)CN(CCCCN)C(=O)CN(CC(C)C)C(=O)CNCCCCN)[C@H](C)c1ccccc1)C(=O)N[C@@H](CSC1CC(=O)N(c2ccc3c(c2)C(=O)OC32c3ccc(O)cc3Oc3cc(O)ccc32)C1=O)C(N)=O)CC(C)C)Cc1ccc2c(c1)OCO2)[C@H](C)c1ccccc1)C(=O)CNCCCCN (stereo partly shown) [GU40C4] (I: H-[Nlys][Nleu][Nlys][Nrpe][Gly(N-piperonyl)][Nlys][Nleu][Nlys][Nlys][Ahx][βAla]KC(Fluorescein(5-Mal))-NH2 / II: H-[Nlys][Nleu][Nlys][Nrpe][Gly(N-piperonyl)][Nlys][Nleu][Nlys][Nlys]; amide I:12-II:C)
- IC50 (HUVEC [1]; 4 days, read-out: IC50 of VEGF-induced HUVEC proliferation): ~1000 nM
- inhibition of HUVEC proliferation (in words) (HUVEC [1]; 1 μM): halfway
- inhibition of HUVEC proliferation (in words) (HUVEC [1]; 10 μM): reduced to essentially basal levels; also recorded: almost to the basal level
- adverse effects of treatment [2]: no adverse effects
- time after cessation of therapy until tumors grow at a rate similar to control [2]: 3 to 4 days
- tumor necrosis (H&E histology) [2]: induced significant tumor necrosis
- tumor size [2]: approximately 200 mm^3
- improvement of antagonism over the monomeric parent compound (VEGFR2 [3]): 100- to 500 fold
- effect on VEGF-induced HUVEC tube formation (HUVEC [4]): Clear evidence of the inhibition of tube formation; also recorded: able to disrupt HUVEC tube formation; also recorded: disrupted HUVEC tube formation
- binding signal on PAE/KDR cells with competitor (VEGFR2 [5]; 100-fold excess unlabeled GU40C4): disappeared completely
- binding to cells with or without native VEGFR2 (VEGFR2 [5]): did not associate detectably with cells that lacked VEGFR2
- binding to cells with or without native VEGFR2 (VEGFR2 [5]; listed as CU40C4): red halo was observed only when the peptoid was incubated with the MCF-7 cells
- binding to PAE parental cells (VEGFR2 [5]; cells lacking the VEGFR2 expression vector): did not bind detectably
